{
  "source": "patent US20200354411A1",
  "about": "“Chimeric Molecule for Targeting c-Myc in Cells” (priority 2017, published 2020)",
  "key": {"[1]": {"test_system": "c-Myc", "test": "E-Box luciferase reporter, c-Myc transcriptional activity in A431 cells", "assay_type": "cell-based", "details": "for EC50: A431 cells expressing luciferase upon E-Box promoter", "excerpt": "(§1) All cell lines come from ATCC. Lentiviruses were generated according to the manufacturer's instructions (Invitrogen). WT A431 cells were transduced with Cignal Lenti Myc Reporter (Qiagen) expressing Luciferase upon E-Box promoter and CMV-Renilla Control CLS-RCL expressing Renilla upon CMV promoter. Single clone was selected after colony isolation and Luciferase/Renilla expression level tested. All cell lines (A431 and HepG2) were maintained in high-glucose Dulbecco's modified Eagle's medium supplemented with 10% foetal calf serum at 37° C. in a 10% CO2 incubator. All experiments were performed on cells passaged fewer than 10 times after thawing.\n40,000 A431-Ebox-luc-CMV-Ren cells were seeded in a 96-well plate (Falcon) 48 hours. Luminescence is detected using the Promega Dual-Glo luciferase assay system, according to the manufacturer's protocol and read using Tecan Infinite M200 microplate reader using 100 ms integration time. […]"}, "[2]": {"test_system": "Hepatocarcinoma HepG2 cells", "test": "DRAQ7 cell mortality assay", "assay_type": "cell-based", "details": "24 hours", "protocol": "25000 HepG2 cells were seeded per well in a 96-well plate. After incubation at 37° C. for 24 hours, DRAQ7 dye was prepared with 100 nM tPE-H1 at 500 times dilution\nCell mortality was tracked by acquiring nine fields of brightfield and far-red images at 20× magnification every 4 hours using the Operetta machine (Perkin-Elmer) for 3 to 5 days. The machine kept the plate incubated at 37° C. with 8% CO2.\n(§2) It is of note that the experiments outlined above were also performed using the tPE-Omomcy fusion protein, results of which are shown in FIG. 2B, and FIGS. 12 to 15. The concentration of the tPE-Omomyc fusion protein is as stated on the x-axis in FIGS. 12 and 14; 200 nM for FIG. 2B; and 10 nM for FIGS. 13 and 15."}, "[3]": {"test_system": "HeLa, A431, MG63, MDA-MD231, and HCT116", "test": "Sensitivity of other cell lines (data not shown)", "assay_type": "cell-based"}, "[4]": {"test_system": "A431 cells", "test": "Cell fractionation, subcellular location", "assay_type": "cell-based", "details": "for subcellular location after cell fractionation: 200 nM, 1 hour, A431; for time to reach the nucleus: after incubation", "protocol": "Cells were seeded at the desired densities in six-well dishes (Thermo Fisher Scientific) and incubated at 37° C., 10% CO2 for 16 hours. Cells were treated for 1 hour with mock (untreated cells) or tPE-H1 200 nM before fractionation with Cell Surface Protein Isolation Kit (#89881, Thermo Fisher Scientific) according to the manufacturer's protocol. In addition, cytosolic fraction is centrifuge at 15 000 g for 15 minutes to remove membrane contaminants. Samples are denaturated in Laemmli blue 2X and heat-denaturated for 5 minutes at 95° C. Samples are loaded on SDS-PAGE followed by western blot.\nas §2"}, "[5]": {"test_system": "Hepatocarcinoma HepG2 cells", "test": "HepG2 cell proliferation (IncuCyte live imaging)", "assay_type": "cell-based", "details": "for concentration above which no proliferation / absence of cell growth: HepG2, 2 weeks", "protocol": "(§3) Cells were seeded at 10 to 20% confluency. 24 hours later, the cells were incubated with different doses of tPE-H1 at 37° C., 10% CO2 for 14 days. Live imaging was performed using IncuCyte ZOOM® Live-Cell Analysis System. Bright field Images were taken every 6 hours. Images were analysed using IncuCyte ZOOM® Live-Cell Analysis software.\nas §2"}, "[6]": {"test_system": "c-Myc regulated genes", "test": "RT-PCRQ of c-Myc regulated transcripts", "assay_type": "cell-based, human", "details": "A431, 100 nM overnight (16 hours)", "protocol": "400000 A431 cells were seeded in each well in a 6 well plate (Falcon) 24 hours before incubation with 100 nM tPE-H1 for 16 hours at 37° C. Total RNA was isolated using the RNeasy Mini Kit (Qiagen, Ref. no 74106) as described by manufacturer's protocol.\n10 μg total RNA was reversed transcribed using SuperScript III First-Strand Synthesis System for RT-PCR (Invitrogen, Cat. no. 18080051) as described by manufacturer's protocol.\nThe relative expression of mRNAs of c-Myc regulated genes identified in RT^2 Profiler™ PCR Array Human MYC Targets (Qiagen, Cat. no. PAHS-177Z) was determined by real-time quantitative RT-PCR. Briefly, a PCR component mix containing cDNA, RT^2 SYBR Green Mastermix (Qiagen, Cat. no. 330523) and RNase-free water is prepared. 25 μl of the PCR reaction was added to each well in one array plate and subjected to a qPCR program using the ABI 7500. PCR cycling conditions comprised of an initial denaturation step at 95° C. for 10 minutes followed by an amplification program for 40 cycles of 15 seconds at 95° C., and 60 seconds at 60° C. with fluorescence acquisition at the end of each extension. The relative expression of each gene between treated and untreated samples is calculated using the comparative ΔΔCT method, using the mock treated sample as calibrator and housekeeping gene HPRT as internal control."}, "[7]": {"target": "T1, c-Myc/Max complex (Homo sapiens, UniProt P01106)", "T1 construct": "endogenous in cells; host or cells: A431", "T1 sequence (P01106 whole entry, one chain of several)": "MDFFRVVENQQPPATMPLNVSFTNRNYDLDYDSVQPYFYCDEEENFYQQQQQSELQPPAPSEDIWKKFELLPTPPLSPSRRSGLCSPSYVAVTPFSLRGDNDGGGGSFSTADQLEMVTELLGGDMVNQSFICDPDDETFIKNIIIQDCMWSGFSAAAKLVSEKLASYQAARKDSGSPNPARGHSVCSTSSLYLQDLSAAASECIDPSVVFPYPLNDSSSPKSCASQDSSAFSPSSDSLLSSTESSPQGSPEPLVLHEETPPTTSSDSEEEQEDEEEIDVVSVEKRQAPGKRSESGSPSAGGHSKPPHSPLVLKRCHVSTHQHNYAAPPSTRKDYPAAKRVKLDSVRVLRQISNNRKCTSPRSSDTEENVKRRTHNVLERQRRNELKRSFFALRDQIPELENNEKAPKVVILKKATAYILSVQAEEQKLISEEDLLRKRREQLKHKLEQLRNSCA", "test": "c-Myc co-immunoprecipitation with Max", "assay_type": "cell-based", "details": "200 nM, 1 hour, A431", "protocol": "A431 cells seeded at the desired densities in six-well dishes (Thermo Fisher Scientific) and incubated at 37° C., 10% CO2 for 16 hours. Cells were treated for 1 hour with mock, tPE or tPE-H1 200 nM before lysis in RIPA buffer for 20 minutes at 4° C. and centrifugation for 20 minutes at 15 000 g at 4° C. Soluble fractions were added with c-myc antibody (#32, Abcam) on orbital wheel for 4 hours at 4° C. Protein A Sepharose (GE Healthcare) was added and incubated overnight on orbital wheel at 4° C. After three washes, proteins were eluted in one volume of Laemmli blue 2X and heat-denaturated for 5 minutes at 95° C. Samples were run on SDS-PAGE before western blot. Membrane are blocked in milk and incubated with anti Max (#199489, Abcam) and anti c-Myc (#32072, Abcam)."}, "[8]": {"test_system": "A431 cells", "test": "A431 cell proliferation (IncuCyte live imaging)", "assay_type": "cell-based", "protocol": "as §3"}, "[9]": {"test_system": "Renilla upon CMV promoter", "test": "CMV-Renilla control reporter in A431 cells", "assay_type": "cell-based", "details": "50 nM, 6 hours", "excerpt": "as §1\n40,000 A431-Ebox-luc-CMV-Ren cells were seeded in a 96-well plate (Falcon) 48 hours. Luminescence is detected using the Promega Dual-Glo luciferase assay system, according to the manufacturer's protocol and read using Tecan Infinite M200 microplate reader using 100 ms integration time."}, "[10]": {"details": "6 hours, read-out: EC50 on c-Myc transcriptional activity, CPP fused to H1"}, "[11]": {"details": "6 hours, read-out: EC50 on c-Myc transcriptional activity (c-Myc-dependent luciferase activity)"}, "[12]": {"details": "tPE-Omomyc 10 nM, A431 E-Box luciferase"}, "[13]": {"details": "tPE-H1 50 nM, A431 E-Box luciferase"}},
  "note": "“Also recorded” adds a separate entry of the source. Where two headings read alike, the source gives them in different places.",
  "data": [
    {"substance": "cell targeting peptide Cadherin fused to H1: LLIILLRRRIRKQAHAHSK NELKRAFAALRDQI [CAD-H1, reference compound]", "values": [
      {"measurement": "EC50", "setting": "[1]; 6 hours, listed as Cadherin, read-out: EC50 on c-Myc transcriptional activity, CPP fused to H1", "result": 75, "unit": "µM"},
      {"measurement": "EC50", "setting": "[1]; [10]", "result": "~75", "unit": "µM"}
    ]},
    {"substance": "cell targeting peptide Antenapedia fused to H1: RQIKIWFQNRRMKWKK NELKRAFAALRDQI [Int-H1, reference compound]", "values": [
      {"measurement": "EC50", "setting": "[1]; 6 hours, listed as Antenapedia, read-out: EC50 on c-Myc transcriptional activity, CPP fused to H1", "result": 200, "unit": "µM"},
      {"measurement": "EC50", "setting": "[1]; 6 hours, listed as int-H1, read-out: EC50 on c-Myc transcriptional activity, CPP fused to H1", "result": "~200", "unit": "µM"}
    ]},
    {"substance": "tPE-Omomyc: fusion protein: PE domains Ia and II genetically fused to Omomyc peptide, SEQ ID NO: 15", "values": [
      {"measurement": "number of dead (DRAQ7 positive) cells", "setting": "[2]; HepG2, 10 nM", "result": "significant increase; also recorded: increase of the number of dead cells"},
      {"measurement": "EC50", "setting": "[1]; [11]", "result": 0.005, "unit": "µM"},
      {"measurement": "time of peak activity / maximal inhibition of luciferase", "setting": "[1]; [12]", "result": 16, "unit": "h"},
      {"measurement": "time over which maximal inhibition is stable", "setting": "[1]; [12]", "result": "more than 24 hours"},
      {"measurement": "concentration to which cell lines were sensitive", "setting": "[3]; HeLa, A431, MG63, MDA-MD231, HCT116, data not shown", "result": "about 10 nM"},
      {"measurement": "subcellular location after cell fractionation", "setting": "[4]", "result": "located in nuclear fraction; also recorded: in the nuclear fraction"},
      {"measurement": "time to reach the nucleus", "setting": "[4]", "result": "≤ 1", "unit": "h"},
      {"measurement": "concentration sufficient to block HepG2 cell proliferation and induce cell death/apoptosis", "setting": "[5]", "result": 10, "unit": "nM"},
      {"measurement": "cell proliferation", "setting": "[5]; HepG2, 2.5 nM and 5 nM, 2 weeks", "result": "slower cell proliferation"},
      {"measurement": "cell proliferation, different doses", "setting": "[5]; HepG2, 1 to 10 nM", "result": "decrease in cell proliferation"},
      {"measurement": "concentration above which no proliferation / absence of cell growth", "setting": "[5]", "result": "above 10 nM"}
    ]},
    {"substance": "tPE-H1: fusion protein: PE domains Ia and II genetically fused to mutated H1 peptide (S6A, F8A), SEQ ID NO: 14", "values": [
      {"measurement": "number of dead (DRAQ7 positive) cells", "setting": "[2]; HepG2, 100 nM", "result": "cells death; also recorded: increase of the number of dead cells"},
      {"measurement": "mRNA amount of transcripts regulated by c-Myc", "setting": "[6]", "result": "decrease of numerous upregulated genes under tPE-H1 treatment and an increase of numerous down regulated genes"},
      {"measurement": "more efficient than H1 fused to cell penetrating peptides (TAT, CAD, int)", "setting": "[1]", "result": "at least 1000 times"},
      {"measurement": "decrease in Myc reporter activity", "setting": "[1]; 50 nM", "result": "> 90", "unit": "%"},
      {"measurement": "effect on E-Box luciferase", "setting": "[1]; 50 nM, 6 hours, A431", "result": "decrease of the luciferase"},
      {"measurement": "EC50", "setting": "[1]; [11]", "result": 0.025, "unit": "µM"},
      {"measurement": "time of peak activity / maximal inhibition of luciferase", "setting": "[1]; [13]", "result": 8, "unit": "h"},
      {"measurement": "time over which maximal inhibition was stable", "setting": "[1]; [13]", "result": "more than 24 hours"},
      {"measurement": "effect on c-Myc/Max interaction (co-IP of Max with c-Myc)", "setting": "[7]", "result": "disrupted the c-Myc/Max interaction"},
      {"measurement": "relative sensitivity of all cell lines tested, tPE-H1 versus tPE-Omomyc", "setting": "[3]; all the cell lines tested", "result": "around 10 times"},
      {"measurement": "cell proliferation", "setting": "[8]; A431, 50 nM and 100 nM, over 2 weeks", "result": "slower cell proliferation"},
      {"measurement": "cell proliferation, dose response", "setting": "[8]; A431, 50 to 400 nM", "result": "dose dependent decrease in cell proliferation"},
      {"measurement": "concentration above which no proliferation / total absence of growth", "setting": "[8]; A431, over 2 weeks", "result": "above 200 nM"},
      {"measurement": "subcellular location after cell fractionation", "setting": "[4]", "result": "location in the nucleus"},
      {"measurement": "time to reach the nucleus", "setting": "[4]", "result": "less than 1 hour"},
      {"measurement": "concentration sufficient to block HepG2 cell proliferation and induce cell death/apoptosis", "setting": "[5]", "result": 100, "unit": "nM"},
      {"measurement": "cell proliferation", "setting": "[5]; HepG2, 10 nM and 25 nM, over 2 weeks", "result": "slower cell proliferation"},
      {"measurement": "concentration above which no proliferation / absence of cell growth", "setting": "[5]", "result": "above 50 nM"},
      {"measurement": "effect on Renilla luciferase (CMV promoter control)", "setting": "[9]", "result": "not affected"}
    ]},
    {"substance": "cell targeting peptide TAT fused to H1: GRKKRRQRRRPPQ NELKRAFAALRDQI [Tat-H1, reference compound]", "values": [
      {"measurement": "EC50", "setting": "[1]; 6 hours, listed as TAT, read-out: EC50 on c-Myc transcriptional activity, CPP fused to H1", "result": 500, "unit": "µM"},
      {"measurement": "EC50", "setting": "[1]; [10]", "result": "~500", "unit": "µM"}
    ]}
  ]
}
